Laboratory results as given in publication PMC12408683 (Archives of Toxicology, 2025).

Experiments:
[1] = parameters: method as in Carlsson et al. 2022; details: concentrations below 25 µM; ref Carlsson et al. 2022; cited from earlier work
[2] = parameters: method as in Carlsson et al. 2022; details: ref Carlsson et al. 2022; cited from earlier work
human liver biopsies = tested on: human liver biopsies; parameters: method as in Herrmann et al. 2013; details: ref Herrmann et al. 2013; cited from earlier work
HepG2-CYP1A2 cells [3] = details: positive control
Description: The CBMN assay was performed according to the OECD test guideline #487. Therefore, 2 × 10^5 cells were seeded in 3.5 cm dishes and allowed to adhere for 24 h. […] After the 24 h treatment, the medium was discarded and the cells were incubated with fresh medium, containing 6 µg/mL cytochalasin B as cytokinesis inhibitor. The cells were then left to grow for 72 h, allowing for 1.5–2 × cell cycles. Subsequently, the cells were rinsed with PBS and fixed with ice-cold methanol for 10 min at –20 °C. Cells were washed and embedded with Vectashield® containing DAPI (Vector Labs, Burlingame, CA, USA). The samples were analysed with a Zeiss Axio Observer 7 microscope equipped with an Axiocam 305 mono and a 63 × oil immersion objective (plan-apochromat 63x/1.40 DIC M27) using ZEN Software 3.2. 500 binucleated cells per sample were analysed for micronuclei formation.
As benchmark response (BMR) for all concentration–response curves (adducts, micronuclei), a 2.0-fold increase vs. solvent control was used (BMC100, critical effect size = 1). The determined BMC100 and the corresponding upper and lower boundary (BMCU and BMCL, respectively) of the 90% confidence interval (CI) were used for potency comparison.

calf thymus DNA = tested on: calf thymus DNA; parameters: method as in Bergau et al. 2021; details: ref Bergau et al. 2021; cited from earlier work
HepG2 cells [4] = test: Resazurin reduction assay (cytotoxicity) in HepG2 cells; details: positive control 10 µM, time-dependent
HepG2-CYP1A2 cells [5] = test: Alkaline comet assay (DNA strand breaks) in HepG2-CYP1A2 cells; details: positive control, 200 µM, 20 min
Description: (§1) As a positive control, tBuOOH (20 min, 200 µM) was used. Subsequently, the alkaline comet assay was performed to quantify DNA strand breaks as previously described (Haas et al. [2023b]). Per sample, at least 50 comets were counted with Comet IV software (Instem, Staffordshire, UK) using a Zeiss Axio Observer 7 microscope equipped with an Axiocam 305 mono and ZEN 3.2 software (Carl Zeiss, Jena, Germany).

HepG2 cells [6] = details: positive control, 200 µM, 20 min
Description: as §1

SMILES: C=CC(O)c1ccc(OC)c(OC)c1 (centres unmarked) [1′OH-ME, 1′-hydroxymethyleugenol]
- cytotoxicity [1]: not cytotoxic
- alkaline comet assay outcome [2]: negative

SMILES: C=CCc1ccc(OC)c(OC)c1 [ME, methyleugenol]
- ME-derived DNA adducts, median (human liver biopsies): 13 adducts/10^8 nts

SMILES: CO[C@@]12[C@H](COC(N)=O)C3=C(C(=O)C(C)=C(N)C3=O)N1C[C@@H]1N[C@@H]12 [MMC, mitomycin C, reference compound]
- MN (CBMN) (HepG2-CYP1A2 cells [3]): robust increase in MN

SMILES: C/C=C/c1ccc(OC)cc1 [anethole]
- E3′-N2-dG adduct levels vs equimolar ES concentrations (calf thymus DNA): several times lower

SMILES: COc1cc([C@@H]2c3cc4c(cc3[C@@H](O[C@@H]3O[C@@H]5CO[C@@H](C)O[C@H]5[C@H](O)[C@H]3O)[C@H]3COC(=O)[C@H]23)OCO4)cc(OC)c1O [etoposide, reference compound]
- cytotoxicity (resazurin reduction assay) (HepG2 cells [4]): cytotoxic

SMILES: CC(C)(C)OO [tBuOOH, tert-butyl hydroperoxide, reference compound]
- DNA strand breaks (alkaline comet assay) (HepG2-CYP1A2 cells [5]): strong DNA strand break induction
- DNA strand breaks (alkaline comet assay) (HepG2 cells [6]): strong DNA strand break induction
